Source: US12097260B2, “Temperature-responsive degradable hydrogels” (priority 2017, dated 2024)
Where two headings read alike, the source gives them in different places.

How the values were obtained:
[1] = Effect of comonomers on LCST (slope of LCST vs. mol %); format: physicochemical; conditions: comonomer in NIPAAm-based temperature-responsive polymers
From the text: The effect on LCST of a comonomer can be determined by preparing polymers with varying content and evaluating the slope of a line of best fit for the plot of LCST vs. mol % X, where X is the comonomer.

E. coli (25922) = assay: Minimum biofilm eradication concentration (MBEC) on rabbit muscle; format: cell-based
Protocol: (§1) MBEC of biofilms grown on rabbit muscle specimens in vitro was determined. The goal of the study was to compare the relative spectrum of antimicrobial activity of TOB and VANC either alone or in combination. […] This method also allows for controlled culture conditions and quantitative data without confounding phenomena that would be present in an animal model of infection such as variability throughout a single infection, host immune function, and release/transport of antimicrobials.
(§2) Aseptically obtained rabbit muscle samples (˜40 mg) were incubated in bacterial suspension for 3 days to allow biofilm growth. Tissue specimens were then rinsed and placed in separate wells of a 96-well plate. Medium containing various concentrations of antimicrobials (4000, 2000, 1000, 750, 500, 250, 125, 64, 32, 16, and 0 μg/mL) were then added to the wells containing the contaminated tissue samples. Plates were then incubated for either 6, 24, or 72 hours at 37° C. Following this “exposure time,” the antimicrobial-containing medium was removed and specimens were rinsed with antimicrobial-free growth medium at least 4 times to remove any residual antimicrobials. Then the specimens were subcultured in separate test tubes containing antimicrobial-free medium and incubated at 37° C.
(§3) In each series of specimens for a given strain, antimicrobial treatment, and exposure time, the lowest antimicrobial concentration showing no growth after 21 day subculture was measured to be the MBEC. If all subcultures were positive, the MBEC was determined to be >4000 μg/mL. Selected positive subcultures were confirmed by culture identification at a third-party diagnostic laboratory.

S. aureus (BAA 1556) = assay: as above; format: cell-based
Protocol: as §1, §2, §3

S. epidermidis (29886) = assay: as above; format: cell-based
Protocol: as §1, §2, §3

S. epidermidis (700583) = assay: as above; format: cell-based
Protocol: as §1, §2, §3

S. aureus (BAA 1680) = assay: as above; format: cell-based
Protocol: as §1, §2, §3

P. aeruginosa (27853) = assay: as above; format: cell-based
Protocol: as §1, §2, §3

S. epidermidis (35984) = assay: as above; format: cell-based
Protocol: as §1, §2, §3

E. faecalis (29212) = assay: as above; format: cell-based
Protocol: as §1, §2, §3

S. aureus (49230) = assay: as above; format: cell-based
Protocol: as §1, §2, §3

Solubility in water = format: physicochemical
S. aureus ATCC 49230 = assay: Rabbit infection treatment model; format: in vivo; conditions: comparator treatments
Protocol: The present studies utilized the same rabbit infection treatment model initially adapted from Nelson and colleagues delivering tobramycin mixed into the hydrogel by the methods described herein. Twenty rabbits were infected with S. aureus ATCC 49230 and six rabbits were infected with MRSA ATCC BAA-1556. The polymer used in the hydrogels was PNJ18-DBLA with the composition reported in Table 34, and the hydrogel contained 3.14 wt % tobramycin as an active agent which was dissolved separately at the time of use and mixed with polymer solution by end-to-end syringe mixing.

[2] = test system: Ten laboratory standard bacterial strains; assay: MBEC summary over the bacterial strains tested; format: cell-based; conditions: for Strains with MBEC>1,000 μg/mL: 24 and 72 hr exposure
Protocol: Ten laboratory standard bacterial strains intended to represent the spectrum of pathogens found in surgical site infections were evaluated: 3 S. aureus (2 methicillin-resistant, 1 methicillin-sensitive), 4 S. epidermidis (1 methicillin-resistant, 3 methicillin-sensitive), K Faecalis, P. Aeruginosa, and E. Coli (ATCC #BAA-1556, BAA-1680, 49230, 35984, 29886, 700583, 14990, 29212, 27853, and 25922). Both MRSA strains tested (BAA-1556, BAA-1680) are susceptible or intermediately susceptible to both TOB and VANC. S. epidermidis (35984), P. aeruginosa (27853), and E. faecalis (29212) are tobramycin-resistant. None of the gram-positive organisms tested are resistant to vancomycin. Vancomycin is not effective against gram-negative bacteria (E. coli, P. aeruginosa).
as §3

[3] = Stability of hydrophobic comonomers in 95° C. stress conditions, pH 4, titration; format: physicochemical; conditions: up to 14 days at 95° C.
Protocol: Stability of additional monomers was also evaluated in 95° C. stress conditions as hydrophobic monomers with the function of decreasing the LCST. […] The polymers were dissolved at 50 mg/mL in 0.2 M sodium acetate-acetic acid buffer (pH 4). Separate samples of 5 mL each were incubated at 95° C. for 0, 2, 4, 7, or 14 days to evaluate stability of the hydrophobic monomers, as NIPAAm and JAAm are known to be relatively stable in these conditions. After the designated time, samples were cooled and stirred to re-dissolve the polymer, and the solution was dialyzed to remove salts and any degradants. Then 100 mg of the recovered material for each sample was dissolved in 10 mL deionized water and evaluated for acid content by titration using phenolphthalein as the indicator and 1 mM NaOH as the titrant. The titration data were corrected against a control sample which contained only deionized water, as about 0.9 mL of titrant in 10 mL was required for the indicator to change color.

[4] = dog, in vivo; cited from earlier work
[5] = cited from earlier work
[6] = Degradation vs. incubation temperature in 0.2 M phosphate buffer (accelerated stability method); format: physicochemical
Protocol: A high concentration of phosphate ions is known to decrease the LCST, an effect known as “salting-out.” Thus, the LCST values measured in this study are lower than for the same polymer in PBS. The polymer was dissolved at 3 mg/mL in 0.2 M phosphate buffer (pH 7.4). […] The buffer was not replaced. This was done to maintain a controlled experiment between temperatures because the samples at low temperatures contained polymer solution, preventing exchange of the buffer. Tubes contained transparent solution at 4° C. and slightly turbid solution at 22° C. Samples incubated at 40-80° C. formed opaque, milky solutions immediately upon heating. After overnight storage, samples incubated at 40-80° C. contained a separated solid precipitate phase at the bottom of the tube, and transparent overlying buffer. […] The LCST of each sample was determined using a cloud point method. […] At each temperature, the absorbance of the solution was measured using a spectrophotometer (450 nm). The temperature at which the absorbance was half of the maximum value was recorded as the LCST. […] For temperatures at which 30° C. was not measured, linear interpolation between the nearest two data points was used to calculate the time at which LCST reached 30° C. […] A separate study evaluated the polymer PNJ1.3-DB20 using the same methods with incubation at 4, 37, 60, and 80° C. in 0.2 M phosphate buffer (pH 7.4). […]

Compound: C=CC(=O)O [Acrylic acid]
- Effect on LCST [1]: +2.6 ° C./mol %

Compound: C=C(C)C(=O)OCCCC [BMA, butyl methacrylate]
- Effect on LCST [1]: −0.62 ° C./mol %

Compound: C=CC(=O)OCCCC [Butyl acrylate, butyl acrylate]
- Effect on LCST [1]: −0.44 ° C./mol %

Compound: C=CC(=O)OC1C(=O)OCC1(C)C (stereo not drawn) [DBLA, dimethyl butyrolactone acrylate]
- Effect on LCST [1]: −1.8 ° C./mol %

Compound: C=CC(=O)NC1C(=O)OCC1(C)C (stereo not drawn) [DBLAAm, dimethyl butyrolactone acrylamide]
- Effect on LCST [1]: −0.51 ° C./mol %

Compound: NC[C@H]1O[C@H](O[C@H]2[C@H](O)[C@@H](O[C@H]3O[C@H](CO)[C@@H](O)[C@H](N)[C@H]3O)[C@H](N)C[C@@H]2N)[C@H](N)C[C@@H]1O [TOB, tobramycin]
- MBEC (E. coli (25922); 6 hr exposure): 250 µg/mL
- MBEC (E. coli (25922); 24 hr exposure): 62 µg/mL
- MBEC (E. coli (25922); 72 hr exposure): 62 µg/mL
- MBEC (S. aureus (BAA 1556); 6 hr exposure): 2000 µg/mL
- MBEC (S. aureus (BAA 1556); 24 hr exposure): 375 µg/mL
- MBEC (S. aureus (BAA 1556); 72 hr exposure): 250 µg/mL
- MBEC (S. epidermidis (29886); 6 hr exposure): 125 µg/mL
- MBEC (S. epidermidis (29886); 24 hr exposure): 125 µg/mL
- MBEC (S. epidermidis (29886); 72 hr exposure): 31 µg/mL
- MBEC (S. epidermidis (700583); 6 hr exposure): 125 µg/mL
- MBEC (S. epidermidis (700583); 24 hr exposure): 250 µg/mL
- MBEC (S. epidermidis (700583); 72 hr exposure): 375 µg/mL
- MBEC (S. aureus (BAA 1680); 6 hr exposure): >4000 µg/mL
- MBEC (S. aureus (BAA 1680); 24 hr exposure): >4000 µg/mL
- MBEC (S. aureus (BAA 1680); 72 hr exposure): 4000 µg/mL
- MBEC (P. aeruginosa (27853); 6 hr exposure): 2000 µg/mL
- MBEC (P. aeruginosa (27853); 24 hr exposure): 375 µg/mL
- MBEC (P. aeruginosa (27853); 72 hr exposure): 62 µg/mL
- MBEC (S. epidermidis (35984); 6 hr exposure): >4000 µg/mL
- MBEC (S. epidermidis (35984); 24 hr exposure): >4000 µg/mL
- MBEC (S. epidermidis (35984); 72 hr exposure): >4000 µg/mL
- MBEC (E. faecalis (29212); 6 hr exposure): >4000 µg/mL
- MBEC (E. faecalis (29212); 24 hr exposure): >4000 µg/mL
- MBEC (E. faecalis (29212); 72 hr exposure): >4000 µg/mL
- MBEC (S. aureus (49230); 6 hr exposure): 500 µg/mL
- MBEC (S. aureus (49230); 24 hr exposure): 375 µg/mL
- MBEC (S. aureus (49230); 72 hr exposure): 250 µg/mL
- Solubility in aqueous solutions (Solubility in water; over a range of pH values): > 30 wt %
- Rabbits that remained infected (S. aureus ATCC 49230): 4/7
- Strains with MBEC>1,000 μg/mL [2]: 3 strains
- # Strains w/ MBEC ≥1000 μg/mL ([2]; 6 hr exposure): 5/10
- # Strains w/ MBEC ≥1000 μg/mL ([2]; 24 hr exposure): 3/10
- Max. MBEC ([2]; 24 hr exposure): >4000 µg/mL
- Median MBEC ([2]; 24 hr exposure): 250 µg/mL
- # Strains w/ MBEC ≥1000 μg/mL ([2]; 72 hr exposure): 3/10

Compound: C=CC(=O)NC(C)(C)C [Tert-butyl acrylamide, tert-butyl acrylamide]
- Effect on LCST [1]: −0.41 ° C./mol %

Compound: C=CC(=O)OC(C)(C)C [Tert-butyl acrylate, tert-butyl acrylate]
- Initial structure retained [3]: poorest stability
- Effect on LCST [1]: −0.69 ° C./mol %

Compound: CN[C@H](CC(C)C)C(=O)N[C@H]1C(=O)N[C@@H](CC(N)=O)C(=O)N[C@H]2C(=O)N[C@H]3C(=O)N[C@H](C(=O)N[C@H](C(=O)O)c4cc(O)cc(O)c4-c4cc3ccc4O)[C@H](O)c3ccc(c(Cl)c3)Oc3cc2cc(c3O[C@@H]2O[C@H](CO)[C@@H](O)[C@H](O)[C@H]2O[C@H]2C[C@](C)(N)[C@H](O)[C@H](C)O2)Oc2ccc(cc2Cl)[C@H]1O [VANC, vancomycin]
- MBEC (E. coli (25922); 6 hr exposure): >4000 µg/mL
- MBEC (E. coli (25922); 24 hr exposure): >4000 µg/mL
- MBEC (E. coli (25922); 72 hr exposure): >4000 µg/mL
- MBEC (S. aureus (BAA 1556); 6 hr exposure): 4000 µg/mL
- MBEC (S. aureus (BAA 1556); 24 hr exposure): 2000 µg/mL
- MBEC (S. aureus (BAA 1556); 72 hr exposure): 1000 µg/mL
- MBEC (S. epidermidis (29886); 6 hr exposure): 375 µg/mL
- MBEC (S. epidermidis (29886); 24 hr exposure): 375 µg/mL
- MBEC (S. epidermidis (29886); 72 hr exposure): 375 µg/mL
- MBEC (S. epidermidis (700583); 6 hr exposure): 1000 µg/mL
- MBEC (S. epidermidis (700583); 24 hr exposure): 1000 µg/mL
- MBEC (S. epidermidis (700583); 72 hr exposure): 1000 µg/mL
- MBEC (S. aureus (BAA 1680); 6 hr exposure): 4000 µg/mL
- MBEC (S. aureus (BAA 1680); 24 hr exposure): 2000 µg/mL
- MBEC (S. aureus (BAA 1680); 72 hr exposure): 2000 µg/mL
- MBEC (P. aeruginosa (27853); 6 hr exposure): >4000 µg/mL
- MBEC (P. aeruginosa (27853); 24 hr exposure): >4000 µg/mL
- MBEC (P. aeruginosa (27853); 72 hr exposure): >4000 µg/mL
- MBEC (S. epidermidis (35984); 6 hr exposure): 4000 µg/mL
- MBEC (S. epidermidis (35984); 24 hr exposure): 750 µg/mL
- MBEC (S. epidermidis (35984); 72 hr exposure): 375 µg/mL
- MBEC (E. faecalis (29212); 6 hr exposure): 1000 µg/mL
- MBEC (E. faecalis (29212); 24 hr exposure): 375 µg/mL
- MBEC (E. faecalis (29212); 72 hr exposure): 250 µg/mL
- MBEC (S. aureus (49230); 6 hr exposure): >4000 µg/mL
- MBEC (S. aureus (49230); 24 hr exposure): >4000 µg/mL
- MBEC (S. aureus (49230); 72 hr exposure): 2000 µg/mL
- Maximum solubility (Solubility in water; about pH 3): ~19 wt %
- Solubility (Solubility in water; pH 4-7.4): ≤ 2 wt %
- Strains with MBEC>1,000 μg/mL [2]: 6 strains
- # Strains w/ MBEC ≥1000 μg/mL ([2]; 6 hr exposure): 8/10
- # Strains w/ MBEC ≥1000 μg/mL ([2]; 24 hr exposure): 6/10
- Max. MBEC ([2]; 24 hr exposure): >4000 µg/mL
- Median MBEC ([2]; 24 hr exposure): 750 µg/mL
- # Strains w/ MBEC ≥1000 μg/mL ([2]; 72 hr exposure): 6/10

Compound: CCCCN1CCCCC1C(=O)Nc1c(C)cccc1C (stereo not drawn) [bupivacaine]
- Toxic systemic levels [4]: 1,000-2,000 ng/mL
- Water solubility [5]: approximately 200 μg/mL
- Water solubility ([5]; higher pH above 7.64): less than 0.1 wt %
- Water solubility ([5]; pH≈6): 2-5 wt %

Compound: poly(NIPAAm-co-DBLA-co-JAAm) [PNJ18-DBLA]
- Degradation at 22° C., times faster than at 4° C. [6]: 3.63 times
- Degradation at 80° C., times faster than at 40° C. [6]: 11.67 times
